Reference: US12459910B2, “Mitochondrial therapeutic agents” (ARIZONA BOARD OF REGENTS ON BEHALF OF ARIZONA STATE …, priority 2021, dated 2025)

Tests used:
FRDA fibroblasts = assay: Erastin cell survival assay (cellular ATP, ViaLight Plus); assay type: cell-based; conditions: FRDA fibroblasts (GM04078); compounds 12 h before 4 μM erastin; viability by ATP 48 h after erastin; read-out: Erastin challenge cell survival EC50
From the text: (§1) All compounds evaluated for their biological effects were >95% pure. Chemicals employed for the bioassays, including ferrostatin-1 (Fer-1), liproxstatin-1 (Lip-1), RSL3 ((1S,3R)-RSL3), erastin, α-tocopherol, carbonyl cyanide 4-(trifluoromethoxy) phenylhydrazone (FCCP) and galactose, were purchased from Sigma Aldrich. Fluorescent probes, including C11-BODIPY581/591(4,4-difluoro-5-(4-phenyl-1,3-butadienyl)-4-bora-3a,4a-diaza-s-indacene-3-propionic acid), and The Live/Dead® Viability/Cytotoxicity Kit were obtained from Invitrogen (Thermo Fisher Scientific). Luciferase-linked ATPase enzymatic assay (ViaLight Plus proliferation/cytoxicity kit was purchased from Lonza (Walkersville, MD). FRDA lymphocytes (catalogue number GM15850) and FRDA fibroblasts cells (catalogue number GM04078) were obtained from Coriell Cell Repositories (Camden, NJ, USA).
(§2) Lymphocytes were cultured in RPMI-1640 medium (Gibco, Life Technologies, Grand Island, NY) with 15% fetal calf serum, 2 mM glutamine (HyClone, South Logan, UT) and 1% penicillin-streptomycin antibiotic supplement (Cellgro, Manassas, VA). Cells were passaged daily to maintain them in log phase growth and kept at a nominal concentration of 5-10×105 mL. FRDA fibroblasts were cultured in 64% (v/v) Eagle's minimal essential medium (MEM), lacking phenol red with Eagle's balanced salt (EBS) and 25% M199 with EBS (Gibco) supplemented with 10% (v/v) fetal bovine serum albumin (HyClone), 1% penicillin-streptomycin antibiotic mix, 10 μg/mL insulin (Gibco), 10 ng/mL […] (EGF), 10 ng/mL basic fibroblast growth factor (Gibco) and 2 mM glutamine. Cells were grown in 75 cm2 culture flasks and incubated at 37° C. in a humidified atmosphere of 5% CO2 in air. Cells were fed twice weekly and split every third day at a ratio of 1:3. All experiments were conducted with FRDA cells from passages 8-14.
The ability of the test compounds to confer cytoprotection to ferroptosis inducer erastin in FRDA fibroblasts was determined by assessing the depletion of cellular ATP using a commercially available luciferase-linked ATPase enzymatic assay (ViaLight® Plus proliferation/cytotoxicity Kit (Lonza, Walkersville, MD) according to the directions of the manufacturer. Briefly, FRDA fibroblasts (GM04078) were plated in 96-well microtiter plates at a density of 3000 cell/well (50 μL) (Costar, Corning, NY). The plates were incubated at 37° C. for 24 h in an atmosphere having 95% humidity and 5% CO2 to allow attachment of the cells to the culture plates and to allow the cell density reach 60-70% confluency. The next day the test compounds were dissolved in DMSO, diluted to the appropriate concentrations in fresh cell culture media and the cells were then treated with the test compounds (final DMSO concentration was <0.5%). […] Cell viability in each well was determined 48 h after erastin addition by measuring the intracellular ATP content using the ViaLight®-Plus ATP monitoring reagent kit (Lonza, Walkersville, MD) according to the manufacturer's protocol. The ATP concentration was determined by reading luminescence using a luminator (Clarity™ luminescence microplate reader). The percent of viable cells relative to non-treated control was determined for each well. […] Final data output was a calculated EC50 value determined graphically from the dose-response curves using the nonlinear regression curve fit analysis model.

FRDA lymphocytes = assay: RSL3 challenge lipid peroxidation assay (C11-BODIPY581/591, FACS); assay type: cell-based; conditions: Homo sapiens; FRDA lymphocytes (GM15850); compounds overnight, then 2 μM RSL3; C11-BODIPY581/591 flow cytometry; read-out: RSL3 challenge lipid peroxidation inhibition EC50
From the text: as §1, §2
Lipid peroxidation in live cells can be visualized using the oxidation-sensitive fluorescent probe C11-BODIPY581/591. Upon oxidation of this probe, the fluorescence properties shift from a red-emitting form (595 nm) to a green emitting form (520 nm). Changes in fluorescence indirectly reflect the oxidation of unsaturated fatty acids. A quantitative analysis of lipid peroxidation in FRDA lymphocytes, challenged with 2 μM RSL3 in the presence or absence of the test compounds for 2 h was obtained by FACS analysis using the specific dye C11-BODIPY581/591. Briefly, FRDA lymphocytes (5×10^5 cell/mL) were treated with the test compounds (dissolved in DMSO and added to the assay medium at final DMSO concentrations <0.5%) at varying concentrations and incubated at 37° C. overnight in a humidified atmosphere containing 5% CO2 in air. Cells were treated with 2 μM of RSL3 and then incubated for 90 minutes in a humidified atmosphere containing 5% CO2 in air at 37° C. Cells were treated with 2 μM of C11-BODIPY581/591 in phenol red-free RPMI-1640 media and incubated at 37° C. in the dark for 30 min. […] Cells were resuspended in 300 μL of PBS and were analyzed immediately by flow cytometry (C6 Accuri, BD Biosciences, San Jose, CA), to monitor the change in intensity of the C11-BODIPY581/591-green (oxidized) fluorescence signal using 488 nm excitation laser and FL1-H channel 538 nm emission filter. In each analysis, 10,000 events were recorded. […] Final data output was a calculated EC50 value determined graphically from the dose-response curves using the nonlinear regression curve fit analysis model.

Row | EC50 (FRDA lymphocytes) [nM] | SMILES | EC50 (FRDA fibroblasts) [nM]
1 | 14 ± 1 | CCCCCCCCc1cc2nc3ccc(=O)cc-3sc2cc1N(C)C [Example 2, 7-(Dimethylamino)-8-octyl-3H-phenothiazin-3-one] | 15 ± 3
2 | 12 ± 1 | CCCCCCCCCc1cc2nc3ccc(=O)cc-3sc2cc1N(C)C [Example 3, 7-(Dimethylamino)-8-nonyl-3H-phenothiazin-3-one] | 11 ± 1
3 | 25 ± 3 | CCCCCCCCCCCCCCCCc1cc2nc3ccc(=O)cc-3sc2cc1N(C)C [Example 5, 7-(Dimethylamino)-8-hexadecyl-3H-phenothiazin-3-one] | 22 ± 2

Further lines, the compound ahead of its results:

Row | SMILES | EC50 (FRDA lymphocytes) [nM] | EC50 (FRDA fibroblasts) [nM]
4 | CCCCCCCCCCc1cc2nc3ccc(=O)cc-3sc2cc1N(C)C [Example 1, 8-Decyl-7-(dimethylamino)-3H-phenothiazin-3-One] | 9 ± 1 | 10 ± 1
5 | CCCCCCCCCCCCc1cc2nc3ccc(=O)cc-3sc2cc1N(C)C [Example 4, 7-(Dimethylamino)-8-dodecyl-3H-phenothiazin-3-one] | 16 ± 1 | 15 ± 1
